Laboratory results reported in patent US8367684B2, “Derivatives of 4-(N-azacycloalkyl) anilides as potassium channel modulators” (Valeant Pharmaceuticals International, priority 2007, dated 2013).

These molecules were tested on potassium ion channels (assay: Rubidium (Rb+) efflux assay in NGF-differentiated PC-12 cells, potassium channel modulation). Details: depolarization buffer with 15 mM KCl, 10 min at room temperature, read-out: ACTIVITY (EC50, compound's concentration for 50% of maximal Rb+ efflux).
Type: cell-based
Method: Compounds of this invention formula were evaluated as potassium channel modulators by measuring rhubidium release in the following assay.
Methods: PC-12 cells were grown at 37° C. and 5% CO2 in DMEM/F12 Medium supplemented with 10% horse serum, 5% fetal bovine serum, 2 mM glutamine, 100 U/ml penicillin, 100 U/ml streptomycin. They were plated in poly-D-lysine-coated 96-well cell culture microplates at a density of 40,000 cells/well and differentiated with 100 ng/ml NGF-7s for 2-5 days. For the assay, the medium was aspirated and the cells were washed once with 0.2 ml in wash buffer (25 mM Hepes, pH 7.4, 150 mM NaCl, 1 mM MgCl2, 0.8 mM NaH2PO4, 2 mM CaCl2). The cells were then loaded with 0.2 ml Rb^+ loading buffer (wash buffer plus 5.4 mM […], 5 mM glucose) and incubated at 37° C. for 2 h. Attached cells were quickly washed three times with buffer (same as Rb^+ loading buffer, but containing 5.4 mM KCl instead of RbCl) to remove extracellular Rb^+. Immediately following the wash, 0.2 ml of depolarization buffer (wash buffer plus 15 mM KCl) with or without compounds was added to the cells to activate efflux of potassium ion channels. After incubation for 10 min at room temperature, the supernatant was carefully removed and collected. Cells were lysed by the addition of 0.2 ml of lysis buffer (depolarization buffer plus 0.1% Triton X-100) and the cell lysates were also collected. If collected samples were not immediately analyzed for Rb^+ contents by atomic absorption spectroscopy (see below), they were stored at 4° C. without any negative effects on subsequent Rb^+ analysis.
The concentration of Rb^+ in the supernatants (Rb^+Sup) and cell lysates (Rb^+Lys) was quantified using an ICR8000 flame atomic absorption spectrometer (Aurora Biomed Inc., Vancouver, B.C.) under conditions defined by the manufacturer. One 0.05 ml samples were processed automatically from microtiter plates by dilution with an equal volume of Rb^+ sample analysis buffer and injection into an air-acetylene flame. The amount of Rb^+ in the sample was measured by absorption at 780 nm using a hollow cathode lamp as light source and a PMT detector. A calibration curve covering the range 0-5 mg/L Rb^+ in sample analysis buffer was generated with each set of plates. The percent Rb^+ efflux (F) was defined by F=[Rb^+sup/(Rb^+sup+Rb^+Lys)]×100%.
The effect (E) of a compound was defined by: E=[(Fc−Fb)/(Fs−Fb)]×100% where the Fc is the efflux in the presence of compound in depolarization buffer, Fb is the efflux in basal buffer, and Fs is the efflux in depolarization buffer, and Fc is the efflux in the presence of compound in depolarization buffer. The effect (E) and compound concentration relationship was plotted to calculate an EC50 value, a compound's concentration for 50% of maximal Rb^+ efflux. Legend: A: EC50=1 nM-50 nM; B: EC50=50 nM-100 nM; C: EC50=100-200 nM.

EC50 [nM] | Compound
1 to 50 | Cc1cc(N2CCc3ccccc3C2)nc(C)c1NC(=O)CC(C)(C)C
1 to 50 | Cc1cc(N2CCc3cc(F)ccc3C2)nc(C)c1NC(=O)CC(C)(C)C
1 to 50 | Cc1cc(N2CCc3cc(C(F)(F)F)ccc3C2)nc(C)c1NC(=O)CC(C)(C)C
1 to 50 | COc1nc(N2CCc3ccccc3C2)nc(OC)c1NC(=O)CC(C)(C)C
1 to 50 | COc1nc(N2CCc3cc(F)ccc3C2)nc(OC)c1NC(=O)CC(C)(C)C
50 to 100 | Cc1nc(N2CCc3ccccc3C2)nc(C)c1NC(=O)CC(C)(C)C
